Consider 8 compounds from patent US20190100534A1, “Cephem Compounds with Latent Reactive Groups” (Gladius Pharmaceuticals, Inc., priority 2017, published 2019).

Assay type in all cases: cell-based
For assay [1], the system named is Pseudomonas aeruginosa PA-RR-(980151052). Put plainly: MIC determination. The conditions noted are these: Pseudomonas aeruginosa; PA-RR-(980151052); CAMH broth, 20 μM Apo-Transferrin, 37° C., 18 hours; read-out: Minimum Inhibitory Concentrations, PA-RR-(980151052). Summed up:
(§1)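 Broth microdilution in CAMH + 20 μM apo-transferrin; inoculum 0.5 McFarland, used within 30 min. Compound 64→0.125 μg/mL, twofold steps. 37 °C, 18 h. MIC = lowest clear-well concentration.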

The subject of assay [2] is Pseudomonas aeruginosa PA-RR-(G8062859). Put plainly: MIC determination. The conditions noted are these: Pseudomonas aeruginosa; PA-RR-(G8062859); CAMH broth, 20 μM Apo-Transferrin, 37° C., 18 hours; read-out: Minimum Inhibitory Concentrations, PA-RR-(G8062859). An outline of the steps: as §1
The test system of assay [3] is Pseudomonas aeruginosa (PA). As to the kind of experiment: MIC determination. The conditions noted are these: Pseudomonas aeruginosa; PA; CAMH broth, 20 μM Apo-Transferrin, 37° C., 18 hours; read-out: Minimum Inhibitory Concentrations, PA. Summed up: as §1
Assay [4] has as its system Pseudomonas aeruginosa PA (RR-1). As to the kind of experiment: MIC determination. The conditions noted are these: Pseudomonas aeruginosa; PA (RR-1); CAMH broth, 20 μM Apo-Transferrin, 37° C., 18 hours; read-out: Minimum Inhibitory Concentrations, PA (RR-1). Summed up: as §1
The subject of assay [5] is Isogenic E. coli J58 strain carrying SHV-1. Put plainly: MIC determination, isogenic E. coli strains. The conditions noted are these: Escherichia coli, 18 h, read-out: Mimimum Inhibitory Concentrations, SHV-1. An outline of the steps: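 MIC is the lowest compound concentration leaving a transparent well after overnight (18 h) incubation at 37 °C. The test strain was E. coli J53 expressing plasmid-borne SHV-1 beta-lactamase from pBC-SK(+), adjusted to 0.5 McFarland. Compounds were twofold serially diluted, starting at 64 μg/mL, in CAMH broth supplemented with 20 μM apo-transferrin.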

The subject of assay [6] is Isogenic E. coli J58 strain carrying IMP-1. Put plainly: MIC determination, isogenic E. coli strains. The conditions noted are these: Escherichia coli, 18 h, read-out: Mimimum Inhibitory Concentrations, IMP-1. Summed up:
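Broth microdilution in cation-adjusted Mueller-Hinton broth with 20 μM apo-transferrin, compound serially diluted two-fold from 64 μg/mL, against E. coli J53 carrying plasmid-borne IMP-1. Inoculum adjusted to 0.5 McFarland; plates incubated 18 h at 37° C. MIC taken as lowest concentration giving a clear well.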

With `CC(C)(O/N=C(\C(=O)N[C@@H]1C(=O)N2C(C(=O)O)=C(C=Cc3ccc(C[N+](C)(C)Cc4ccc(O)c(O)c4Cl)cc3)CS[C@H]12)c1csc(N)n1)C(=O)O` (mixture of isomers) [Compound 434, N-(4-((E/Z)-2-((6R,7R)-7-((Z)-2-(2-aminothiazol-4-yl)-2-(((2-carboxypropan-2-yl)oxy)imino)acetamido)-2-carboxy-8-oxo-5-thia-1-azabicyclo[4.2.0]oct-2-en-3-yl)vinyl)benzyl)-1-(2-chloro-3,4-dihydroxyphenyl)-N,N-dimethylmethanaminium], the MIC is 4 µg/mL in assay [1]; 2 µg/mL in assay [2]; 4 µg/mL in assay [3]; 1 µg/mL in assay [4]; 1 µg/mL in assay [5]; 0.25 µg/mL in assay [6].
For the compound `CC(C)(O/N=C(\C(=O)N[C@@H]1C(=O)N2C(C(=O)O)=C(C=Cc3ccc(C[N+]4(C)Cc5cc(O)c(O)cc5C4)cc3)CS[C@H]12)c1csc(N)n1)C(=O)O` (mixture of isomers) [Compound 424, 2-(4-((E/Z)-2-((6R,7R)-7-((Z)-2-(2-aminothiazol-4-yl)-2-(((2-carboxypropan-2-yl)oxy)imino)acetamido)-2-carboxy-8-oxo-5-thia-1-azabicyclo[4.2.0]oct-2-en-3-yl)vinyl)benzyl)-5,6-dihydroxy-2-methylisoindolin-2-ium], the MIC in assay [1] is 4 µg/mL; in assay [2] it was 2 µg/mL; in assay [3] it was 2 µg/mL; in assay [4] it was 4 µg/mL; in assay [5], 2 µg/mL; in assay [6], over 64 µg/mL.
Turning to `CC(C)(O/N=C(\C(=O)N[C@@H]1C(=O)N2C(C(=O)O)=C(C=Cc3ccc(C[N+](C)(C)Cc4cc(O)c(O)c(Cl)c4)cc3)CS[C@H]12)c1csc(N)n1)C(=O)O` (mixture of isomers) [Compound 436, N-(4-((E/Z)-2-((6R,7R)-7-((Z)-2-(2-aminothiazol-4-yl)-2-(((2-carboxypropan-2-yl)oxy)imino)acetamido)-2-carboxy-8-oxo-5-thia-1-azabicyclo[4.2.0]oct-2-en-3-yl)vinyl)benzyl)-1-(3-chloro-4,5-dihydroxyphenyl)-N,N-dimethylmethanaminium], the MIC in assay [1] came to 4 µg/mL; in assay [2], 5 µg/mL; in assay [3], 8 µg/mL; in assay [4], 2 µg/mL; in assay [5], 1 µg/mL; in assay [6], 8 µg/mL.
As for `Cn1c[n+](Cc2ccc(C=CC3=C(C(=O)O)N4C(=O)[C@@H](NC(=O)/C(=N\OC(C)(C)C(=O)O)c5csc(N)n5)[C@H]4SC3)cc2)cc1C(=O)Nc1ccc(O)c(O)c1` (mixture of isomers) [Compound 411, 3-(4-((E/Z)-2-((6R,7R)-7-((Z)-2-(2-aminothiazol-4-yl)-2-(((2-carboxypropan-2-yl)oxy)imino)acetamido)-2-carboxy-8-oxo-5-thia-1-azabicyclo[4.2.0]oct-2-en-3-yl)vinyl)benzyl)-5-((3,4-dihydroxyphenyl)carbamoyl)-1-methyl-1H-imidazol-3-ium], the MIC in assay [1] was found to be 8 µg/mL; in assay [2], 2 µg/mL; in assay [3] it was 8 µg/mL; in assay [4] it was 4 µg/mL; in assay [5], 4 µg/mL; in assay [6], 64 µg/mL.
Take `CC(C)(O/N=C(\C(=O)N[C@@H]1C(=O)N2C(C(=O)O)=C(C=Cc3ccc(C[n+]4cccc(-c5ccc(O)c(O)c5)c4)cc3)CS[C@H]12)c1csc(N)n1)C(=O)O` (mixture of isomers) [Compound 413, 1-(4-((E/Z)-2-((6R,7R)-7-((Z)-2-(2-aminothiazol-4-yl)-2-(((2-carboxypropan-2-yl)oxy)imino)acetamido)-2-carboxy-8-oxo-5-thia-1-azabicyclo[4.2.0]oct-2-en-3 yl)vinyl)benzyl)-3-(3,4-dihydroxyphenyl)pyridin-1-ium]: the MIC in assay [1] came to 4 µg/mL; in assay [2] it was 2 µg/mL; in assay [3], 4 µg/mL; in assay [4], 4 µg/mL; in assay [5], 2 µg/mL; in assay [6], 64 µg/mL.
For `Cc1c[n+](Cc2ccc(C=CC3=C(C(=O)O)N4C(=O)[C@@H](NC(=O)/C(=N\OC(C)(C)C(=O)O)c5csc(N)n5)[C@H]4SC3)cc2)ccc1-c1ccc(O)c(O)c1` (mixture of isomers) [Compound 422, 1-(4-((E/Z)-2-((6R,7R)-7-((Z)-2-(2-aminothiazol-4-yl)-2-(((2-carboxypropan-2-yl)oxy)imino)acetamido)-2-carboxy-8-oxo-5-thia-1-azabicyclo[4.2.0]oct-2-en-3-yl)vinyl)benzyl)-4-(3,4-dihydroxyphenyl)-3-methylpyridin-1-ium], the MIC in assay [1] is 8 µg/mL; in assay [2], 2 µg/mL; in assay [3], 8 µg/mL; in assay [4], 4 µg/mL; in assay [5] it was 2 µg/mL; in assay [6], over 64 µg/mL.
Turning to `CC(C)(O/N=C(\C(=O)N[C@@H]1C(=O)N2C(C(=O)O)=C(C=Cc3ccc(C[n+]4ccc(NC(=O)c5ccc(O)c(O)c5)cc4)cc3)CS[C@H]12)c1csc(N)n1)C(=O)O` (mixture of isomers) [Compound 427, 1-(4-((E/Z)-2-((6R,7R)-7-((Z)-2-(2-aminothiazol-4-yl)-2-(((2-carboxypropan-2-yl)oxy)imino)acetamido)-2-carboxy-8-oxo-5-thia-1-azabicyclo[4.2.0]oct-2-en-3-yl)vinyl)benzyl)-4-(3,4-dihydroxybenzamido)pyridin-1-ium], the MIC in assay [1] worked out at 0.5 µg/mL; in assay [2] it was 0.25 µg/mL; in assay [3], 0.06 µg/mL; in assay [4], 4 µg/mL; in assay [5], 1 µg/mL; in assay [6] it was 16 µg/mL.
As to `CC(C)(O/N=C(\C(=O)N[C@@H]1C(=O)N2C(C(=O)O)=C(C=Cc3ccc(C[N+](C)(C)Cc4ccc(O)c(O)c4)cc3)CS[C@H]12)c1csc(N)n1)C(=O)O` (mixture of isomers) [Compound 426, N-(4-((E/Z)-2-((6R,7R)-7-((Z)-2-(2-aminothiazol-4-yl)-2-(((2-carboxypropan-2-yl)oxy)imino)acetamido)-2-carboxy-8-oxo-5-thia-1-azabicyclo[4.2.0]oct-2-en-3-yl)vinyl)benzyl)-1-(3,4-dihydroxyphenyl)-N,N-dimethylmethanaminium], the MIC came to 4 µg/mL in assay [1]; 2 µg/mL in assay [2]; 4 µg/mL in assay [3]; 4 µg/mL in assay [4]; 0.5 µg/mL in assay [5]; 32 µg/mL in assay [6].
